From patent publication US5925648A, “Tricyclic N-cyanoimines useful as inhibitors of a farnesyl-protein transferase” (Schering Corporation, priority 1997, dated 1999) come the findings set out here.

Assay [1] concerns the target T1, farnesyl protein transferase (Rattus norvegicus, UniProt Q02293+Q04631).
T1 construct: partially purified rat brain farnesyl protein transferase (FPT); from tissue; host or cells: rat brain
The assay can be described thus: FPT IC50 (inhibition of farnesyl protein transferase, in vitro enzyme assay; Ras-CVLS farnesylation by partially purified rat brain FPT). Type of assay: biochemical. As for the experimental part: 1. In vitro enzyme assays: FPT IC50 (inhibition of farnesyl protein transferase, in vitro enzyme assay) are determined by the methods disclosed in […] or WO 95/10516.

In the next assay the test system is Ras processing. In words: COS IC50, cell-based assay: COS cells activity inhibition of Ras processing. The method, then: 2. Cell-based assay. COS IC50 values refer to the COS cells activity inhibition of Ras processing, are determined by the methods disclosed in […] or WO 95/10516.

A word on the IC50: it is the concentration at which inhibition is half-maximal. Read a high IC50 as weaker potency.

In the case of `N#CN=C(Nc1ccc2c(c1)COCO2)N1CCC(=C2c3ccc(Cl)cc3CCc3cccnc32)CC1` [Example 10], the IC50 was 18 nM in assay [1] and 250 nM with Ras processing.
`N#CN=C(Nc1ccc2c(c1)COCO2)N1CCC(=C2c3ccc(Cl)cc3CCc3cc(Br)cnc32)CC1` [Example 11] showed an IC50 in the assay on Ras processing of 250 nM.
In assay [1], `CSC(=NC#N)N1CCC(=C2c3ccc(Cl)cc3CCc3cc(Br)cnc32)CC1` [Example 12] yielded an IC50 of less than 410 nM.
The same measure, in the same setting: the value for `N#CN=C(N1CCOCC1)N1CCC(=C2c3ccc(Cl)cc3CCc3cc(Br)cnc32)CC1` [Example 13] was 720 nM.
In turn, `N#CN=C(Nc1ccccc1)N1CCC(=C2c3ccc(Cl)cc3CCc3cccnc32)CC1` [Example 14] had an IC50 in the assay with Ras processing of 2500 nM.
Same read-out and setting: as for `CCOC(=O)N1CCC(NC(=NC#N)N2CCC(=C3c4ccc(Cl)cc4CCc4cc(Br)cnc43)CC2)CC1` [Example 15], the figure is 560 nM.
Regarding `CCOC(=NC#N)N1CCC(=C2c3ccc(Cl)cc3CCc3cc(Br)cnc32)CC1` [Example 16], the 50% inhibitory concentration (IC50) came out at 54 nM in assay [1] and 2300 nM with Ras processing.
`CNC(=NC#N)N1CCC(=C2c3ccc(Cl)cc3CCc3cc(Br)cnc32)CC1` [Example 17] came in with an IC50 in the assay on Ras processing of 5000 nM.
In turn, `N#CN=C(Nc1ccc2c(c1)OCO2)N1CCC(=C2c3ccc(Cl)cc3CCc3cc(Br)cnc32)CC1` [Example 18] displayed an IC50 in the assay with Ras processing of 800 nM.
`N#CN=C(NC1CCCCC1)N1CCC(=C2c3ccc(Cl)cc3CCc3cc(Br)cnc32)CC1` [Example 19] yielded an IC50 with Ras processing of 480 nM.
Compound `CCCCNC(=NC#N)N1CCC(=C2c3ccc(Cl)cc3CCc3cc(Br)cnc32)CC1` [Example 20] came in with an IC50 with Ras processing of 1600 nM.
Consider `N#CN=C(NC1CCN(Cc2ccccc2)CC1)N1CCC(=C2c3ccc(Cl)cc3CCc3cc(Br)cnc32)CC1` [Example 22], for which, in assay [1], the midpoint of inhibition, the IC50, lay at 170 nM.
For the compound `N#CN=C(Nc1cccnc1)N1CCC(=C2c3ccc(Cl)cc3CCc3cc(Br)cnc32)CC1` [Example 23], the IC50 in assay [1] turned out to be 140 nM; in the assay with Ras processing, 2400 nM.
On the same counts, the results for `N#CN=C(Nc1ccc2c(c1)COCO2)N1CCN(C2c3ccc(Cl)cc3CCc3cc(Br)cnc32)CC1` (stereo not drawn) [Example 24] are 10 nM and less than 250 nM.
Regarding `COc1ccc(NC(=NC#N)N2CCC(=C3c4ccc(Cl)cc4CCc4cc(Br)cnc43)CC2)cc1` [Example 25], in the assay on Ras processing, the midpoint of inhibition, the IC50, lay at 270 nM.
The same measure, in the same setting: the value for `N#CN=C(NCc1ccccn1)N1CCC(=C2c3ccc(Cl)cc3CCc3cc(Br)cnc32)CC1` [Example 26] was 750 nM.
On to `N#CN=C(NCCO)N1CCC(=C2c3ccc(Cl)cc3CCc3cc(Br)cnc32)CC1` [Example 27], for which the IC50 stood at 17 nM in assay [1] and 2600 nM with Ras processing.
With `N#CN=C(Nc1ccc(F)cc1)N1CCC(=C2c3ccc(Cl)cc3CCc3cc(Br)cnc32)CC1` [Example 29], the IC50 with Ras processing is 570 nM.
Compound `CN1CCN(NC(=NC#N)N2CCC(=C3c4ccc(Cl)cc4CCc4cc(Br)cnc43)CC2)CC1` [Example 31] came in with an IC50 in assay [1] of 260 nM.
The compound `N#CN=C(N1CCCCC1)N1CCC(=C2c3ccc(Cl)cc3CCc3cc(Br)cnc32)CC1` [Example 32] had an IC50 in assay [1] of 270 nM.
In the case of `N#CN=C(N)N1CCC(=C2c3ccc(Cl)cc3CCc3cc(Br)cnc32)CC1` [Example 33], in assay [1], the half-inhibitory concentration (IC50) stood at 2800 nM.
`N#CN=C(Nc1ccc2c(c1)COCO2)N1CCC(C2c3ccc(Cl)cc3C=Cc3cc(Br)cnc32)CC1` (stereo not drawn) [Example 34]: the IC50 in assay [1] was determined as 9600 nM.
`N#CN=C(NCCc1ccncc1)N1CCC(=C2c3ccc(Cl)cc3CCc3cc(Br)cnc32)CC1` [Example 36]: inhibition in the assay with Ras processing was half-maximal at 280 nM (IC50).
With `N#CN=C(Nc1ccc(C#N)cc1)N1CCC(=C2c3ccc(Cl)cc3CCc3cc(Br)cnc32)CC1` [Example 37], in the assay on Ras processing, the IC50 was determined as 280 nM.
On to `N#CN=C(NCc1cccnc1)N1CCC(=C2c3ccc(Cl)cc3CCc3cc(Br)cnc32)CC1` [Example 41], for which the IC50 in the assay on Ras processing was 700 nM.
The same measure, in the same setting: the value for `N#CN=C(NCCCn1ccnc1)N1CCC(=C2c3ccc(Cl)cc3CCc3cc(Br)cnc32)CC1` [Example 42] was 4000 nM.
Take `N#CN=C(NCc1ccncc1)N1CCN(C2c3ccc(Cl)cc3CCc3cc(Br)cnc32)CC1` (stereo not drawn) [Example 43]: 11 nM corresponded to half-maximal inhibition in assay [1] (IC50).
`CN(C)CCCNC(=NC#N)N1CCC(=C2c3ccc(Cl)cc3CCc3cc(Br)cnc32)CC1` [Example 45] displayed an IC50 in assay [1] of 74 nM.
Consider `N#CN=C(Nc1ccc2ncccc2c1)N1CCC(=C2c3ccc(Cl)cc3CCc3cc(Br)cnc32)CC1` [Example 46], for which the IC50 in assay [1] stood at 150 nM.
Same read-out and setting: as for `N#CN=C(Nc1ccc2c(c1)COCO2)N1CCC(=C2c3ccc(Cl)c(Br)c3CCc3cccnc32)CC1` [Example 47], the figure is 14 nM; as for `N#C/N=C(\Nc1ccc([N+](=O)[O-])cc1)N1CCC(=C2c3ccc(Cl)cc3CCc3cc(Br)cnc32)CC1` [Example 48], 64 nM.
Still for that read-out and setting: the value for `N#CN=C(Nc1cc[n+]([O-])cc1)N1CCC(=C2c3ccc(Cl)cc3CCc3cc(Br)cnc32)CC1` [Example 49] was 13 nM; that for `Cn1c(NC(=NC#N)N2CCC(=C3c4ccc(Cl)cc4CCc4cc(Br)cnc43)CC2)cc(=O)n(C)c1=O` [Example 50] was 300 nM; that for `N#CN=C(NCc1ccco1)N1CCC(=C2c3ccc(Cl)cc3CCc3cc(Br)cnc32)CC1` [Example 51] was 73 nM.
`N#CN/C(=N/Cc1ccc2c(c1)OCO2)N1CCC(=C2c3ccc(Cl)cc3CCc3cc(Br)cnc32)CC1` [Example 52] showed an IC50 in assay [1] of 24 nM.
On the same count and under the same terms, as for `N#CN=C(NCc1ccc(N)cc1)N1CCC(=C2c3ccc(Cl)cc3CCc3cc(Br)cnc32)CC1` [Example 53], the figure is 87 nM; as for `N#CN/C(=N/c1ccncc1)N1CCC(=C2c3ccc(Cl)cc3CCc3cc(Br)cnc32)CC1` [Example 54], greater than 110 nM; as for `N#CN=C(Nc1ccc2c(c1)OCCO2)N1CCC(=C2c3ccc(Cl)cc3CCc3cc(Br)cnc32)CC1` [Example 55], 110 nM.
On the same count and under the same terms, the value for `CSC(=NC#N)N1CCC(=C2c3ccc(Cl)c(Br)c3CCc3cc(Br)cnc32)CC1` [Example 56] was 42 nM.
The same measure, in the same setting: the value for `CS(=O)(=O)c1ccc(N/C(=N\C#N)N2CCC(=C3c4ccc(Cl)cc4CCc4cc(Br)cnc43)CC2)cc1` [Example 59] was 87 nM.
In turn, `N#CN=C(NCc1ccc[n+]([O-])c1)N1CCC(=C2c3ccc(Cl)cc3CCc3cc(Br)cnc32)CC1` [Example 60] yielded a 50% inhibitory concentration (IC50) in the assay with Ras processing greater than 1000 nM.
On to `N#CN=C(NCc1ccncc1)N1CCC(=C2c3ccc(Cl)c(Br)c3CCc3cc(Br)cnc32)CC1` [Example 61], for which the IC50 in assay [1] amounted to 5 nM.
The same measure, in the same setting: as for `COc1ccc2[nH]cc(CCNC(=NC#N)N3CCC(=C4c5ccc(Cl)cc5CCc5cc(Br)cnc54)CC3)c2c1` [Example 64], the figure is greater than 950 nM; as for `CSC(=NC#N)N1CCC(=C2c3ccc(Cl)c(Br)c3CCc3cc(Br)cnc32)CC1` [Example 66], 14 nM.
Turning to `N#CN=C(NCc1ccncc1)N1CCC(C2c3ccc(Cl)c(Br)c3CCc3cc(Br)cnc32)CC1` (stereo not drawn) [Example 67], half-maximal inhibition in assay [1] (IC50) required 1.7 nM.
Still for that read-out and setting: as for `N#CN=C(NCCCN1CCCC1=O)N1CCC(C2c3ccc(Cl)c(Br)c3CCc3cc(Br)cnc32)CC1` (stereo not drawn) [Example 68], the figure is 7 nM; as for `N#CN=C(NCCOCCO)N1CCC(C2c3ccc(Cl)c(Br)c3CCc3cc(Br)cnc32)CC1` (stereo not drawn) [Example 69], 3.7 nM.
On to `N#CN=C(NCc1cc[n+]([O-])cc1)N1CCC(=C2c3ccc(Cl)cc3CCc3cc(Br)cnc32)CC1` [Example 70], for which half-maximal inhibition with Ras processing (IC50) was put at 16000 nM.
Turning to `N#CN=C(NCc1ccc2c(c1)OCO2)N1CCC(=C2c3ccc(Cl)c(Br)c3CCc3cc(Br)cnc32)CC1` [Example 72], in assay [1], the IC50 was greater than 100 nM.
The same measure, in the same setting: the value for `CSC(=NC#N)N1CCC(=C2c3ccc(Cl)cc3CCc3cc(Br)cnc32)CC1` [Example 73] was 26 nM; that for `N#CN=C(NCc1ccc(S(N)(=O)=O)cc1)N1CCC(=C2c3ccc(Cl)c(Br)c3CCc3cc(Br)cnc32)CC1` [Example 74] was 15 nM.
Consider `N#CN=C(NCc1cccnc1)N1CCC(=C2c3ccc(Cl)c(Br)c3CCc3cc(Br)cnc32)CC1` [Example 75], for which, in assay [1], the IC50 worked out at 4.8 nM.
`N#CN=C(NCC1CCNCC1)N1CCC(=C2c3ccc(Cl)c(Br)c3CCc3cc(Br)cnc32)CC1` [Example 76] returned an IC50 in assay [1] of 4.7 nM.
Still for that read-out and setting: as for `N#CN=C(NCC1CCN(C(N)=O)CC1)N1CCC(=C2c3ccc(Cl)c(Br)c3CCc3cc(Br)cnc32)CC1` [Example 77], the figure is 4.4 nM; as for `N#CN=C(NCc1ccncc1)N1CCC(=C2c3ccc(Cl)cc3CCc3cccnc32)CC1` [Example 78], 64 nM; as for `N#CN=C(Nc1ccc(N2CCOCC2)cc1)N1CCC(=C2c3ccc(Cl)c(Br)c3CCc3cc(Br)cnc32)CC1` [Example 80], 38 nM.
On the same count and under the same terms, as for `N#CN=C(NCc1ccc[n+]([O-])c1)N1CCC(=C2c3ccc(Cl)c(Br)c3CCc3cc(Br)cnc32)CC1` [Example 81], the figure is 4.6 nM.
As to `N#CN=C(c1ccncc1)N1CCC(C2c3ncc(Br)cc3CCc3cc(Cl)cc(Br)c32)CC1` (stereo not drawn) [Example 83], the IC50 in assay [1] is greater than 33 nM.
